Test results: patent publication US4758565A, “Substituted pyrimidoquinoxalines useful as anti-anaerobic agents” (G. D. Searle & Co., priority 1986, dated 1988)
≈ marks a conversion by molar mass, not a printed value.

Key:
B. fragilis NCTC 9353 = test: Screening panel of Bacteroides fragilis, MIC and MBC, strain B; assay type: cell-based; settings: for MIC / MBC: Bacteroides fragilis, NCTC9353, 48 h; for MIC: read-out: Minimum Inhibitory Concentration (MIC); for MBC: read-out: Minimum Bactericidal Concentration (MBC)
Method: (§1) The screening panel utilized in this example consisted of 5 strains of Bacteroides fragilis. All assays were carried out in 96-well microtitre plates. If an isolate was obtained from either a culture collection or clinical source, the isolate was immediately inoculated into Wilkins-Chalgren broth (Oxoid) and incubated at 37° C. in an anaerobic chamber in an atmosphere of 85% nitrogen, 10% carbon dioxide, and 5% hydrogen for 48 hours. At the end of this time, the viable count was about […] broth. A 1 ml aliquot of each culture was placed in an ampoule and quick frozen in acetone-dry ice mixture and stored in liquid nitrogen. […] A 2 mg sample of the test compound was dissolved in 0.2 ml of a suitable solvent such as dimethylsulfoxide, polyethylene glycol 200 or methanol. […] After addition of the test solution the final inoculum level was 10^5 cells/ml. The plates were incubated for 48 hours at 37° C. in the anaerobic chamber. The Minimum Inhibitory Concentration (MIC) was read visually. The MIC is defined as the lowest concentration at which there is no detectable growth. The Minimum Bactericidal Concentration (MBC) was determined by taking 50 μ l aliquot from each well and placing it in fresh medium. […] The strains of Bacteroides fragilis utilized in the above procedure are identified by letter in accordance with the following legend: |B B. fragilis NCTC 9353

B. fragilis NCTC 10581 = test: Screening panel of Bacteroides fragilis, MIC and MBC, strain A; assay type: cell-based; settings: for MIC: NCTC10581, 48 hours at 37° C., anaerobic, read-out: Minimum Inhibitory Concentration (MIC); for MBC: NCTC10581, less than 5 colonies (99.9% reduction) after 48 hours, read-out: Minimum Bactericidal Concentration (MBC)
Method: as §1, with “|A” for “|B”, “10581” for “9353”

[1] = system: B. fragilis MZ-R ATCC 11295; test: Screening panel of Bacteroides fragilis, MIC and MBC, strain D; assay type: cell-based; settings: ATCC11295, 48 h; for MIC: 48 hours at 37° C., anaerobic, read-out: Minimum Inhibitory Concentration (MIC); for MBC: less than 5 colonies (99.9% reduction) after 48 hours, read-out: Minimum Bactericidal Concentration (MBC)
[2] = system: Clostridium difficile NCIB 10666; test: MIC vs panel of anaerobes; assay type: cell-based; settings: Clostridioides difficile, NCIB10666, procedures of Example 11 (mg/L)
[3] = system: Propionebacterium acnes NCTC 7337; test: MIC vs panel of anaerobes; assay type: cell-based; settings: procedures of Example 11 (mg/L)
B. fragilis WS-1 = test: Screening panel of Bacteroides fragilis, MIC and MBC, strain E; assay type: cell-based; settings: WS1, 48 h; for MIC: 48 hours at 37° C., anaerobic, read-out: Minimum Inhibitory Concentration (MIC); for MBC: less than 5 colonies (99.9% reduction) after 48 hours, read-out: Minimum Bactericidal Concentration (MBC)
Method: as §1, with “|E” for “|B”, “WS-1* | *Obtained from St. Thomas's Hospital Medical School, London, United | Kingdom.” for “NCTC 9353”

[4] = system: Campylobacter fetus ss. jejuni ATCC 29428; test: MIC vs panel of anaerobes; assay type: cell-based; settings: ATCC29428, procedures of Example 11 (mg/L)
B. fragilis NCTC 9344 = test: Screening panel of Bacteroides fragilis, MIC and MBC, strain C; assay type: cell-based; settings: for MBC / MIC: Bacteroides fragilis; for MBC: NCTC9344, 48 h, read-out: Minimum Bactericidal Concentration (MBC); for MIC: NCTC9344, 48 hours at 37° C., anaerobic, read-out: Minimum Inhibitory Concentration (MIC)
Method: as §1, with “|C” for “|B”, “9344” for “9353”

[5] = system: Campylobacter fetus ss. jejuni NCTC 10842; test: MIC vs panel of anaerobes; assay type: cell-based; settings: NCTC10842, procedures of Example 11 (mg/L)
[6] = system: Fusobacterium necrophorum ATCC 11295; test: MIC vs panel of anaerobes; assay type: cell-based; settings: ATCC11295, procedures of Example 11 (mg/L)
[7] = system: Peptostreptococcus anaerobius; test: MIC vs panel of anaerobes; assay type: cell-based; settings: procedures of Example 11 (mg/L)
[8] = system: Clostridium perfringens NCTC 523; test: microbe, parasite or virus in culture; assay type: cell-based; settings: NCTC523
[9] = system: Bacteroides melanogenicus NCTC 9336; test: MIC vs panel of anaerobes; assay type: cell-based; settings: NCTC9336, procedures of Example 11 (mg/L)
Peptococcus magnus = test: MIC vs panel of anaerobes; assay type: cell-based; settings: Finegoldia magna, procedures of Example 11 (mg/L)
[10] = system: Fusobacterium necrophorum ATCC 25286; test: MIC vs panel of anaerobes; assay type: cell-based; settings: ATCC25286, procedures of Example 11 (mg/L)
B. fragilis 23745 = test: In vivo anti-anaerobe activity, mouse hepatic necrosis; settings: 40 mg/kg (p.o)
[11] = less than 5 colonies (99.9% reduction) after 48 hours

SMILES | MIC (B. fragilis NCTC 9353; 48 hours at 37° C., anaerobic) [mg/L] | MBC (B. fragilis NCTC 9353; [11]) [mg/L] | MIC (B. fragilis NCTC 10581) [mg/L] | MBC (B. fragilis NCTC 10581) [mg/L] | MIC [1] [mg/L] | MBC [1] [mg/L] | MIC [2] [mg/L] | MIC [3] [mg/L] | MIC (B. fragilis WS-1) [mg/L] | MBC (B. fragilis WS-1) [mg/L] | MIC [4] [mg/L] | MBC (B. fragilis NCTC 9344; [11]) [mg/L] | MIC (B. fragilis NCTC 9344) [mg/L] | MIC [5] [mg/L] | MIC [6] [mg/L] | MIC [7] [mg/L] | MIC [8] [mg/L] | MIC [9] [mg/L] | also measured
CC1(C)CN=C2C(c3ccccc3)=[N+]([O-])c3cc(C(F)(F)F)ccc3N2C1 [Example 1, 2,3-Dihydro-2,2-dimethyl-5-phenyl-8-trifluoromethyl-1H-pyrimido[1,2-a]quinoxaline 6-oxide] | 1.5 (≈ 4.02 µM) | 1.5 (≈ 4.02 µM) | 3.1 (≈ 8.3 µM) | 3.1 (≈ 8.3 µM) | 0.8 (≈ 2.14 µM) | 0.8 (≈ 2.14 µM) | < 0.8 | 100 (≈ 268 µM) | 1.5 (≈ 4.02 µM) | 1.5 (≈ 4.02 µM) | 100 (≈ 268 µM) | 3.1 (≈ 8.3 µM) | 1.5 (≈ 4.02 µM) | > 100 | 1.5 (≈ 4.02 µM) | 100 (≈ 268 µM) | 1.5 (≈ 4.02 µM) | > 100 | 
CC1(C)CN=C2C(c3ccccc3)=[N+]([O-])c3ccc(F)cc3N2C1 [Example 2, 2,3-Dihydro-2,2-dimethyl-9-fluoro-5-phenyl-1H-pyrimido [1,2-a]quinoxaline 6-oxide] | < 0.8 | < 0.8 |  |  | < 0.8 | < 0.8 | 3.1 (≈ 9.59 µM) | 50 (≈ 155 µM) | < 0.8 | < 0.8 | 25 (≈ 77.3 µM) | 1.5 (≈ 4.64 µM) | < 0.8 | 50 (≈ 155 µM) | 3.1 (≈ 9.59 µM) | 1.5 (≈ 4.64 µM) | 3.1 (≈ 9.59 µM) | 50 (≈ 155 µM) | MIC (Peptococcus magnus): < 0.8 mg/L; MIC [10]: < 0.8 mg/L
Cc1ccc(C2=[N+]([O-])c3cc(C(F)(F)F)ccc3N3CC(C)(C)CN=C23)cc1 [Example 3, 2,3-Dihydro-2,2-dimethyl-5-(4-methylphenyl)-8-trifluoromethyl-1H-pyrimid [1,2-a]quinoxaline 6-oxide] | 1.5 (≈ 3.87 µM) | 1.5 (≈ 3.87 µM) | < 0.8 | < 0.8 | 1.5 (≈ 3.87 µM) | 6.2 (≈ 16 µM) | < 0.8 | > 100 | < 0.8 | 1.5 (≈ 3.87 µM) | > 100 | 3.1 (≈ 8 µM) | 3.1 (≈ 8 µM) | 12.5 (≈ 32.3 µM) | 6.2 (≈ 16 µM) | > 100 | < 0.8 | > 100 | MIC (Peptococcus magnus): > 100 mg/L; MIC [10]: < 0.8 mg/L
CCC1(C)CN=C2C(c3ccccc3)=[N+]([O-])c3cc(C(F)(F)F)ccc3N2C1 (stereo not drawn) [Example 4, 2,3-Dihydro-2-ethyl-2-methyl-5-phenyl-8-trifluoromethyl-1H-pyrimido [1,2-a]quinoxaline 6-oxide] | < 0.8 | < 0.8 | < 0.8 | 1.5 (≈ 3.87 µM) | < 0.8 | < 0.8 |  |  | < 0.8 | < 0.8 |  | < 0.8 | < 0.8 |  |  |  |  |  | 
CC1(C)CN=C2C(c3ccccc3)=[N+]([O-])c3cccc(F)c3N2C1 [Example 5, 2,3-Dihydro-2,2-dimethyl-10-fluoeo-5-phenyl-1H-pyrimido [1,2-a]quinoxaline 6-oxide] | < 0.8 | < 0.8 | < 0.8 | 1.5 (≈ 4.64 µM) | < 0.8 | < 0.8 |  |  | < 0.8 | < 0.8 |  | < 0.8 | < 0.8 |  |  |  |  |  | 
CCC1(C)CN=C2C(c3ccc(C)cc3)=[N+]([O-])c3cc(C(F)(F)F)ccc3N2C1 (stereo not drawn) [Example 6, 2,3-Dihydro-2-ethyl-2-methyl-5-(4-methylphenyl)-8-trifluoromethyl-1H-pyrimdo [1,2-a]quinoxaline 6-oxide] | 6.2 (≈ 15.4 µM) | 6.2 (≈ 15.4 µM) | 6.2 (≈ 15.4 µM) | 6.2 (≈ 15.4 µM) | 1.5 (≈ 3.74 µM) | 3.1 (≈ 7.72 µM) |  |  | 3.1 (≈ 7.72 µM) | 3.1 (≈ 7.72 µM) |  | 3.1 (≈ 7.72 µM) | 3.1 (≈ 7.72 µM) |  |  |  |  |  | 
Cc1ncc([N+](=O)[O-])n1CCO [Metronidazole, reference compound] | < 0.8 | < 0.8 | < 0.8 | < 0.8 |  |  |  |  |  |  |  | 1.5 (≈ 8.76 µM) | < 0.8 |  |  |  |  |  | Minimum Inhibitory Concentration (MIC) (B. fragilis NCTC 9353; 48 hours at 37° C., anaerobic): 1.5 mg/L; Minimum Bactericidal Concentration (MBC) (B. fragilis NCTC 9353; [11]): 1.5 mg/L; reduction in B. fragilis (B. fragilis 23745): 3-3.5 log10; Minimum Bactericidal Concentration (MBC) (B. fragilis NCTC 9344; [11]): < 0.8 mg/L
